Measurements: publication PMC11912111 (Advanced Healthcare Materials, 2025)
Read-outs that look alike come from different tables or passages of the source.

Assays:
[1] = cited from earlier work
GLP-1R = details: GL can also activate GLP-1R; cited from earlier work
[2] = Teduglutide stability in the foam after the gassing process; type: physicochemical; details: Ted-loaded foam and effervescence-like formulation, n = 3 (Figure S3)

Glepaglutide
elimination half-life ([1]; in humans): up to 50 h | binding affinity at GLP-1R (GLP-1R): low binding affinity

Glucagon-like peptide 2 [GLP-2]
elimination half-life ([1]; native GLP-2, healthy individuals, breakdown by DPP-4): 7 min

teduglutide
stability of Ted after the foaming process (concentration change) [2]: degraded after the foaming process
